Test results reported in ChEMBL document CHEMBL1151550, “High-affinity FKBP-12 ligands derived from (R)-()-carvone. Synthesis and evaluation of FK506 pyranose ring replacements” (Bioorg Med Chem Lett, 1995).

target: Peptidyl-prolyl cis-trans isomerase FKBP1A (Homo sapiens, UniProt P62942); assay: Inhibitory activity of compound against FK506 binding protein 12 was determined; settings: read-out: Ki app
Sequence (P62942 whole entry): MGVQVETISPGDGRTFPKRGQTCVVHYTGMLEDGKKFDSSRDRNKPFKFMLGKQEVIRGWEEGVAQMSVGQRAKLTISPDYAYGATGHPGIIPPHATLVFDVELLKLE

Ki	Structure (SMILES)
2.8 nM	COC(CC(C)C)[C@@H]1CC[C@@H](C)[C@](O)(C(=O)C(=O)N2CCCC[C@H]2C(=O)OCc2ccccc2)C1 (stereo partly specified)
210 nM	CC(C)[C@@H]1CC[C@@H](C)[C@](O)(C(=O)C(=O)N2CCCC[C@H]2C(=O)OCc2ccccc2)C1
112 nM	C/C=C\C(OC)[C@@H]1CC[C@@H](C)[C@](O)(C(=O)C(=O)N2CCCC[C@H]2C(=O)OCc2ccccc2)C1 (stereo partly specified)
68 nM	COC(C=C(C)C)[C@@H]1CC[C@@H](C)[C@](O)(C(=O)C(=O)N2CCCC[C@H]2C(=O)OCc2ccccc2)C1 (stereo partly specified)
258 nM	COC[C@@H]1CC[C@@H](C)[C@](O)(C(=O)C(=O)N2CCCC[C@H]2C(=O)OCc2ccccc2)C1
81 nM	COC(C)[C@@H]1CC[C@@H](C)[C@](O)(C(=O)C(=O)N2CCCC[C@H]2C(=O)OCc2ccccc2)C1 (stereo partly specified)
